According to patent publication US7795294B2, “Tetrahydro-2H-indazole pyrazole cannabinoid modulators” (Janssen Pharmaceutica N.V., priority 2006, dated 2010):

How the values were obtained:
human CB1 receptor = target: T1, human CB1 receptor (Homo sapiens, UniProt P21554); test: Binding assay for CB1 agonists or inverse agonists, [3H]-CP-55,940 displacement on membranes of transfected SK-N-MC cells; conditions: for inhibition at 0.2 µM: read-out: Cannabinoid CB1 Receptor Binding percent inhibition
T1 construct: expressed in transfected cells; host or cells: SK-N-MC cells, stably transfected with pcDNA3 CB-1 (human); semi-purified membrane pellet
T1 sequence (P21554 whole entry): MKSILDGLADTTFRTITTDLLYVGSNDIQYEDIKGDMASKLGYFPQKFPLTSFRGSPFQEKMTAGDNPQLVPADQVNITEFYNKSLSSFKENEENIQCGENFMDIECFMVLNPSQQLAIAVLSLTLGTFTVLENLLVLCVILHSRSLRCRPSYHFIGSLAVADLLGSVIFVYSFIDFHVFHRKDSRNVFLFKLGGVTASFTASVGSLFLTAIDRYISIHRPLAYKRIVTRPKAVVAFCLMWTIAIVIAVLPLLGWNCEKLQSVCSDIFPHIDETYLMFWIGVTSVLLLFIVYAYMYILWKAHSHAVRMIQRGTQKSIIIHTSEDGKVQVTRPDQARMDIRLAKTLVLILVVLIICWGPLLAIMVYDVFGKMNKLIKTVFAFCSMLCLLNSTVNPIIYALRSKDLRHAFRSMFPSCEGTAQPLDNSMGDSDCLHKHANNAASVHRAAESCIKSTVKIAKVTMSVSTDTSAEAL
Protocol: (§1) The human CB1 and CB2 receptors were stably expressed in SK-N-MC cells transfected with pcDNA3 CB-1 (human) or pcDNA3 CB-2 (human). The cells were grown in T-180 cell culture flasks under standard cell culture conditions at 37° C. in a 5% CO2 atmosphere. The cells were harvested by trysinization and homogenized in a homogenization buffer (10 mM Tris, 0.2 mM MgCl2, 5 mM KCl, with protease inhibitors aprotinin, leupeptin, pepstatin A and bacitracin) and centrifuged (2000 g). The supernatant was then centrifuged in 2M sucrose (31,300 g) to produce a semi-purified membrane pellet. The pellet was resuspended in homogenization and stored at −80° C.
(§2) On the day of the assay, the pellet was thawed on ice and diluted in assay buffer (50 mM Tris-HCl, 5 mM MgCl2, 2.5 mM EDTA, 0.5 mg/mL fatty acid free bovine serum albumin, pH 7.5). […] The plate was covered and incubated for 90 minutes at 30° C. The contents were then aspirated onto a Packard Unifilter GF/C filter bottom plate prewet with 0.5% polyethyleneimine. The wells of the polypropylene plate were rinsed and aspirated seven times with a 0.9% saline-0.5% Tween 20 solution. The Unifilter plate was dried, a scintillation cocktail was added to each well and the counts representing binding were quantitated in a TopCount scintillation counter.
(§3) For compounds tested, an IC50 binding value was obtained from percent inhibition studies in which various test concentrations were used. The binding value was calculated by linear regression. An average value is shown for those compounds where two or more IC50 values were obtained.
(§4) An average value is shown for those compounds where two or more percent inhibition values were obtained.

human CB2 receptor = target: T2, human CB2 receptor (Homo sapiens, UniProt P34972); test: Binding assay for CB2 agonists or inverse agonists, [3H]-CP-55,940 displacement on membranes of transfected SK-N-MC cells; conditions: for inhibition at 0.2 µM: read-out: Cannabinoid CB2 Receptor Binding percent inhibition
T2 construct: expressed in transfected cells; host or cells: SK-N-MC cells, stably transfected with pcDNA3 CB-2 (human); semi-purified membrane pellet
T2 sequence (P34972 whole entry): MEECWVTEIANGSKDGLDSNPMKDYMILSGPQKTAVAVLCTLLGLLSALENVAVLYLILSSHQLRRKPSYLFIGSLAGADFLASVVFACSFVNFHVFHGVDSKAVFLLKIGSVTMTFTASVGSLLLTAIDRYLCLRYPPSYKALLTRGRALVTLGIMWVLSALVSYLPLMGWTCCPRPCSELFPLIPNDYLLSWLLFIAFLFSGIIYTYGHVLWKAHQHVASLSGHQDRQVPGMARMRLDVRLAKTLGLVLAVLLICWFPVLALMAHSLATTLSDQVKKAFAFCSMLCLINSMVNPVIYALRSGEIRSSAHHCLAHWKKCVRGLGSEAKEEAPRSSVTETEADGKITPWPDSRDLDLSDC
Protocol: as §1, §2, §3, §4

Row | SMILES | IC50 (human CB1 receptor) [nM] | inhibition at 0.2 µM (human CB2 receptor) [%] | IC50 (human CB2 receptor) [nM] | inhibition at 0.2 µM (human CB1 receptor) [%]
1 | COc1ccc(-c2c3c(nn2-c2ccc(Cl)cc2Cl)C(C(=O)NN(C)c2ccccc2)CCC3)cc1 (stereo not shown) [Cpd 26, 2-(2,4-dichloro-phenyl)-3-(4-methoxy-phenyl)-4,5,6,7-tetrahydro-2H-indazole-7-carboxylic acid N′-methyl-N′-phenyl-hydrazide] | 6 | 32 | – | –
2 | CC(NC(=O)C1CCCc2c1nn(Cc1ccccc1)c2-c1cccc(F)c1)C1CCCCC1 (stereo not shown) [Cpd 9, 2-benzyl-3-(3-fluoro-phenyl)-4,5,6,7-tetrahydro-2H-indazole-7-carboxylic acid (1-cyclohexyl-ethyl)-amide] | 3500 | – | 2130 | –
3 | C[C@@H](NC(=O)[C@@H]1CCCc2c1nn(-c1ccc(Cl)cc1Cl)c2-c1ccc(Br)s1)c1ccccc1 [Cpd 53, (7R)-3-(5-bromo-thiophen-2-yl)-2-(2,4-dichloro-phenyl)-4,5,6,7-tetrahydro-2H-indazole-7-carboxylic acid [(1R)-1-phenyl-ethyl]-amide] | 4 | 36 | – | –
4 | CC12CCC(C1)C(C)(C)[C@H]2NC(=O)C1CCCc2c1nn(Cc1ccccc1)c2-c1cccc(F)c1 (stereo partly drawn) [Cpd 19, 2-benzyl-3-(3-fluoro-phenyl)-4,5,6,7-tetrahydro-2H-indazole-7-carboxylic acid [(2S)-1,3,3-trimethyl-bicyclo[2.2.1]hept-2-yl]-amide] | 400 | – | 290 | –
5 | C[C@@H](NC(=O)[C@H]1CCCc2c1nn(-c1ccc(Cl)cc1Cl)c2-c1ccc(F)cc1)c1ccccc1 [Cpd 37, (7S)-2-(2,4-dichloro-phenyl)-3-(4-fluoro-phenyl)-4,5,6,7-tetrahydro-2H-indazole-7-carboxylic acid [(1R)-1-phenyl-ethyl]-amide] | – | 4 | – | 50
6 | C[C@@H](NC(=O)[C@H]1CCCc2c1nn(-c1ccc(Cl)cc1Cl)c2-c1ccc(Br)s1)C1CCCCC1 [Cpd 54, (7S)-3-(5-bromo-thiophen-2-yl)-2-(2,4-dichloro-phenyl)-4,5,6,7-tetrahydro-2H-indazole-7-carboxylic acid [(1R)-1-cyclohexyl-ethyl]-amide] | – | 12 | – | 35
7 | C[C@@H](NC(=O)[C@@H]1CCCc2c1nn(-c1ccc(Cl)cc1Cl)c2-c1ccc(Br)cc1)c1ccccc1 [Cpd 46, (7R)-3-(4-bromo-phenyl)-2-(2,4-dichloro-phenyl)-4,5,6,7-tetrahydro-2H-indazole-7-carboxylic acid [(1R)-1-phenyl-ethyl]-amide] | 0.8 | 28 | – | –
8 | C[C@@H](NC(=O)[C@H]1CCCc2c1nn(-c1ccc(Cl)cc1Cl)c2-c1ccc(Br)cc1)c1ccccc1 [Cpd 45, (7S)-3-(4-bromo-phenyl)-2-(2,4-dichloro-phenyl)-4,5,6,7-tetrahydro-2H-indazole-7-carboxylic acid [(1R)-1-phenyl-ethyl]-amide] | – | 11 | – | 66
9 | Cc1ccc(-c2c3c(nn2Cc2ccccc2)C(C(=O)NC(C)C2CCCCC2)CCC3)cc1 (stereo not shown) [Cpd 8, 2-benzyl-3-p-tolyl-4,5,6,7-tetrahydro-2H-indazole-7-carboxylic acid (1-cyclohexyl-ethyl)-amide] | 240 | – | 1100 | –
10 | COc1ccc(-c2c3c(nn2-c2ccc(Cl)cc2Cl)C(C(=O)NN2CC4CCCC4C2)CCC3)cc1 (stereo not shown) [Cpd 28, 2-(2,4-dichloro-phenyl)-3-(4-methoxy-phenyl)-4,5,6,7-tetrahydro-2H-indazole-7-carboxylic acid (hexahydro-cyclopenta[c]pyrrol-2-yl)-amide] | – | 23 | – | 59
11 | CC(NC(=O)C1CCCc2c1nn(Cc1ccccc1)c2-c1ccc(Cl)cc1)C12CC3CC(CC(C3)C1)C2 (stereo not shown) [Cpd 18, 2-benzyl-3-(4-chloro-phenyl)-4,5,6,7-tetrahydro-2H-indazole-7-carboxylic acid (1-adamantan-1-yl-ethyl)-amide] | 6200 | – | 1900 | –
12 | C[C@@H](NC(=O)C1CCCc2c1nn(-c1ccc(Cl)cc1Cl)c2-c1ccc(Br)cc1)C1CCCCC1 (stereo partly drawn) [Cpd 44, 3-(4-bromo-phenyl)-2-(2,4-dichloro-phenyl)-4,5,6,7-tetrahydro-2H-indazole-7-carboxylic acid [(1R)-1-cyclohexyl-ethyl]-amide] | 2 | 21 | – | –
13 | COc1ccc(-n2nc3c(c2-c2ccc(C)cc2)CCCC3C(=O)N[C@@H]2C3CCC(C3)[C@@H]2CO)cc1 (stereo partly drawn) [Cpd 17, 2-(4-methoxy-phenyl)-3-p-tolyl-4,5,6,7-tetrahydro-2H-indazole-7-carboxylic acid [(2R,3S)-3-hydroxymethyl-bicyclo[2.2.1]hept-2-yl]-amide] | 1800 | – | 1570 | –
14 | COc1ccc(-c2c3c(nn2-c2ccc(Cl)cc2Cl)C(C(=O)NN2CCCCC2)CCC3)cc1 (stereo not shown) [Cpd 21, 2-(2,4-dichloro-phenyl)-3-(4-methoxy-phenyl)-4,5,6,7-tetrahydro-2H-indazole-7-carboxylic acid piperidin-1-ylamide] | – | 18 | – | 42
15 | CC(NC(=O)C1CCCc2c1nn(Cc1ccccc1)c2-c1cccc(F)c1)C12CCC3CC(CC3C1)C2 (stereo not shown) [Cpd 20, 2-benzyl-3-(3-fluoro-phenyl)-4,5,6,7-tetrahydro-2H-indazole-7-carboxylic acid [1-(octahydro-2,5-methano-inden-5-yl)-ethyl]-amide] | 130 | – | 70 | –
16 | CN(NC(=O)C1CCCc2c1nn(-c1ccc(Cl)cc1Cl)c2-c1ccc(Cl)cc1)c1ccccc1 (stereo not shown) [Cpd 35, 3-(4-chloro-phenyl)-2-(2,4-dichloro-phenyl)-4,5,6,7-tetrahydro-2H-indazole-7-carboxylic acid N′-methyl-N′-phenyl-hydrazide] | 2 | 3 | – | –
17 | C[C@@H](NC(=O)C1CCCc2c1nn(-c1ccc(Cl)cc1Cl)c2-c1ccc(F)cc1)C1CCCCC1 (stereo partly drawn) [Cpd 36, 2-(2,4-dichloro-phenyl)-3-(4-fluoro-phenyl)-4,5,6,7-tetrahydro-2H-indazole-7-carboxylic acid [(1R)-1-cyclohexyl-ethyl]-amide] | 2 | 0 | – | –
18 | Cc1ccc(-c2c3c(nn2Cc2ccccc2)C(C(=O)NC2C4(C)CCC(C4)C2(C)C)CCC3)cc1 (stereo not shown) [Cpd 6, 2-benzyl-3-p-tolyl-4,5,6,7-tetrahydro-2H-indazole-7-carboxylic acid (1,3,3-trimethyl-bicyclo[2.2.1]hept-2-yl)-amide] | 400 | – | 840 | –
19 | O=C(NN1CC2CCCC2C1)C1CCCc2c1nn(-c1ccc(Cl)cc1Cl)c2-c1ccc(Cl)cc1 (stereo not shown) [Cpd 50, 3-(4-chloro-phenyl)-2-(2,4-dichloro-phenyl)-4,5,6,7-tetrahydro-2H-indazole-7-carboxylic acid (hexahydro-cyclopenta[c]pyrrol-2-yl)-amide] | – | 3 | – | 39
20 | C[C@@H](NC(=O)[C@H]1CCCc2c1nn(-c1ccc(Cl)cc1Cl)c2-c1ccc(Cl)s1)c1ccccc1 [Cpd 48, (7S)-3-(5-chloro-thiophen-2-yl)-2-(2,4-dichloro-phenyl)-4,5,6,7-tetrahydro-2H-indazole-7-carboxylic acid [(1R)-1-phenyl-ethyl]-amide] | – | 0 | – | 38
21 | O=C(N[C@H](CO)c1ccccc1)[C@@H]1CCCc2c1nn(-c1ccc(Cl)cc1Cl)c2-c1ccc(Br)s1 [Cpd 57, (7R)-3-(5-bromo-thiophen-2-yl)-2-(2,4-dichloro-phenyl)-4,5,6,7-tetrahydro-2H-indazole-7-carboxylic acid [(1S)-2-hydroxy-1-phenyl-ethyl]-amide] | 300 | – | 300 | –
22 | COc1ccc(-c2c3c(nn2-c2ccc(Cl)cc2Cl)C(C(=O)N[C@H](C)c2ccccn2)CCC3)cc1 (stereo partly drawn) [Cpd 27, 2-(2,4-dichloro-phenyl)-3-(4-methoxy-phenyl)-4,5,6,7-tetrahydro-2H-indazole-7-carboxylic acid [(1R)-1-pyridin-2-yl-ethyl]-amide] | 31 | – | – | –
23 | C[C@@H](NC(=O)C1CCCc2c1nn(-c1ccc(Cl)cc1Cl)c2-c1ccc(Cl)cc1)C1CCCCC1 (stereo partly drawn) [Cpd 29, 3-(4-chloro-phenyl)-2-(2,4-dichloro-phenyl)-4,5,6,7-tetrahydro-2H-indazole-7-carboxylic acid [(1R)-1-cyclohexyl-ethyl]-amide] | 1 | 7 | – | –
24 | C[C@@H](NC(=O)[C@@H]1CCCc2c1nn(-c1ccc(Cl)cc1Cl)c2-c1ccc(Br)s1)C1CCCCC1 [Cpd 55, (7R)-3-(5-bromo-thiophen-2-yl)-2-(2,4-dichloro-phenyl)-4,5,6,7-tetrahydro-2H-indazole-7-carboxylic acid [(1R)-1-cyclohexyl-ethyl]-amide] | 3 | 27 | – | –
25 | CC12CCC(C1)C(C)(C)C2NC(=O)C1CCCc2c1nn(Cc1ccccc1)c2-c1ccc(Cl)cc1 (stereo not shown) [Cpd 4, 2-benzyl-3-(4-chloro-phenyl)-4,5,6,7-tetrahydro-2H-indazole-7-carboxylic acid (1,3,3-trimethyl-bicyclo[2.2.1]hept-2-yl)-amide] | 5520 | – | 3900 | –
